# Experimental data from publication PMC6399333, “Synthetic energy sensor AMPfret deciphers adenylate-dependent AMPK activation mechanism” (Nature Communications, 2019).
# Columns and labels:
# [1] = biological target: T1, AMPK γ1 subunit (in the α2β2γ1 AMPfret heterotrimer) (Rattus norvegicus, UniProt P80385); experiment: fluorometric FRET titration of the purified sensor, single-site fit; format: binding
# T1 construct: gene Prkag1; with AMPK α2 (PRKAA2, Rattus norvegicus) and AMPK β2 (PRKAB2, Homo sapiens)
# [2] = biological target: T1, AMPK γ1 subunit (in the α2β2γ1 AMPfret heterotrimer); experiment: fluorometric FRET titration of the purified sensor, single-site fit; also allosteric activation in kinase assay; format: binding
# Source text: fluorometric FRET titration of the purified sensor, single-site fit; also allosteric activation in kinase assay on AMPK γ1 subunit (in the α2β2γ1 AMPfret heterotrimer) | AMPfret reports binding of AMP (in absence of ATP) at one or more binding sites
# T1 sequence (P80385 whole entry): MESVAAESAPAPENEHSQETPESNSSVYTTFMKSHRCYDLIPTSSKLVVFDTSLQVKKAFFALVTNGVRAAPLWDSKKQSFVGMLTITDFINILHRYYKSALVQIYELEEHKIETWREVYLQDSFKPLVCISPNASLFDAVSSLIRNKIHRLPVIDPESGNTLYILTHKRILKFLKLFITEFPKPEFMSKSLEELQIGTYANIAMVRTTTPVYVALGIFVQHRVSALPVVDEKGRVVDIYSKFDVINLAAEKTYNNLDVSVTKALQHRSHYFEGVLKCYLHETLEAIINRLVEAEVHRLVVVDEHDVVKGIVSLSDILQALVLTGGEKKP
# T1 sequence (Q09137 whole entry partner): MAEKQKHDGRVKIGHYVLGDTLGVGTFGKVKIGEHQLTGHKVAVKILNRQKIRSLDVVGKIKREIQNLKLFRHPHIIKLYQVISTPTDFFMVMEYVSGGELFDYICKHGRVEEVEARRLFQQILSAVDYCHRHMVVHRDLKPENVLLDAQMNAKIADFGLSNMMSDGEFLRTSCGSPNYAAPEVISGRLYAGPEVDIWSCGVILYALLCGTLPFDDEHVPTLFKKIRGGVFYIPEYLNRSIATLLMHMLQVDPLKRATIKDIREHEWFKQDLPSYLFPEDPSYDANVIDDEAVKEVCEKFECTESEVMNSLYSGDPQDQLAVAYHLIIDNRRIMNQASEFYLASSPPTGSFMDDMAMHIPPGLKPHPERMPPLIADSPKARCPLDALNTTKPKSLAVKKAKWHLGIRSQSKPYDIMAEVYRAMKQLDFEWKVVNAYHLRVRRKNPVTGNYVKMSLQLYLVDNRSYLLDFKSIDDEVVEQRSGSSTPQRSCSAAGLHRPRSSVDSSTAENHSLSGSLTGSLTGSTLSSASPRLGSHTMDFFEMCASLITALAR
# T1 sequence (O43741 whole entry partner): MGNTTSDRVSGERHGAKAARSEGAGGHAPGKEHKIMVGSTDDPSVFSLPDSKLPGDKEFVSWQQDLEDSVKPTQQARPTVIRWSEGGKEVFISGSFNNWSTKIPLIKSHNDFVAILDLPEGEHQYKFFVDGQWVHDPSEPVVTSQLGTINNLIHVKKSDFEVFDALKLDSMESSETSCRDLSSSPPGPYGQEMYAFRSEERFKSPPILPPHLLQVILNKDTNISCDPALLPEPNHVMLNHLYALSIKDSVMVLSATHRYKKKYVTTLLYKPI
Kd [1] [µM],Kd [2] [µM],SMILES
7.5,,Nc1ncnc2c1ncn2[C@@H]1O[C@H](COP(=O)(O)OP(=O)(O)O)[C@@H](O)[C@H]1O [ADP]
,~1.5,Nc1ncnc2c1ncn2[C@@H]1O[C@H](COP(=O)(O)O)[C@@H](O)[C@H]1O [AMP]
